The values that follow come from ChEMBL document CHEMBL3507680, “University of Dundee, Gates Library screen for HepG2 cell viability”.

This series is described as follows: Human HepG2 cell viability assay in 384 well format. Details: dose 125 nL, time 70.5 hour; cytotoxicity at 70.5 h: concentration not given beside the values. Format: toxicity, cell-based. Conditions: HepG2 cells, read-out: Inhibition.

`c1cc(CN2CCc3nc(N4CCOCC4)nc(NC4CC4)c3C2)co1`: the cytotoxicity at 70.5 h was -10.6%.

With `CS(=O)(=O)N1CCc2ccc(=O)n(CC3CC3)c2CC1`, the cytotoxicity at 70.5 h is -7.85%.

As to `COc1cccc(N2CC3(CCN(c4ccc(C)nn4)C3)CC2=O)c1` (stereo not drawn), the cytotoxicity at 70.5 h was -2.78%.

Consider `CN(C)C(=O)CN1C[C@H]2CCN(C(=O)c3ccncc3)CC[C@H]2S1(=O)=O`, for which the cytotoxicity at 70.5 h is -3.99%.

Regarding `CC(C)CC(=O)N1CC[C@@H]2CN(CC(=O)N(C)C)S(=O)(=O)[C@@H]2CC1`, the cytotoxicity at 70.5 h turned out to be 1.05%.

For the compound `CCS(=O)(=O)N1CCc2ccc(=O)n(CC3CC3)c2CC1`, the cytotoxicity at 70.5 h was -9.39%.

For the compound `CN(Cc1ccccc1)CC1CC2(CO1)CN(Cc1nccs1)C2` (stereo not drawn), the cytotoxicity at 70.5 h was -6.93%.

As to `Cc1noc(C)c1C(=O)N1C[C@@H]2CCCO[C@@H]2[C@H](N(C)C)C1`, the cytotoxicity at 70.5 h is -8.14%.

`COCCN1CCC2(CC1)CC(OCC1CC1)c1ccc(C)cc12` (stereo not drawn): the cytotoxicity at 70.5 h came to 5.78%.

As for `Cc1cc(C(=O)N2C[C@@H]3CCCO[C@@H]3[C@H](N(C)C(C)C)C2)c(C)[nH]1`, the cytotoxicity at 70.5 h was -6.48%.

Turning to `Cc1cnc(N2CCCn3c(nnc3Cn3cccn3)C2)nc1`, the cytotoxicity at 70.5 h was determined as 10.6%.

For the compound `CCn1cc2c(n1)CN(S(=O)(=O)Cc1ccccc1)CC2COC` (stereo not drawn), the cytotoxicity at 70.5 h came out at 11.6%.

Consider `O=C(Cc1ccsc1)NC1CCc2c(ccc(=O)n2CC2CC2)C1` (stereo not drawn), for which the cytotoxicity at 70.5 h came to 12%.

`COCCC(=O)N1CC[C@@H](N2CCN(C)CC2)[C@@H]1Cc1ccccc1`: the cytotoxicity at 70.5 h is -1.48%.

`c1cnn([C@@H]2CN(Cc3nccs3)[C@@H]3CCCO[C@@H]32)c1`: the cytotoxicity at 70.5 h was -6.1%.

On to `Cc1noc(C[C@@H]2COC[C@H]3CN(S(=O)(=O)C4CC4)C[C@@H]23)n1`, for which the cytotoxicity at 70.5 h is -5.01%.

Take `Cc1noc(C[C@@H]2COC[C@H]3CN(S(C)(=O)=O)C[C@@H]23)n1`: the cytotoxicity at 70.5 h was -5.3%.

With `CCOCc1cncc2c1CCN(S(=O)(=O)c1ccc(C)cc1)C2`, the cytotoxicity at 70.5 h was -2.29%.

For the compound `O=C(c1ncn2c1CNS(=O)(=O)c1ccccc1-2)N1CCCCCC1`, the cytotoxicity at 70.5 h was 0.0876%.

For the compound `O=C(c1ncn2c1CNS(=O)(=O)c1ccccc1-2)N1CC=CC1`, the cytotoxicity at 70.5 h was found to be 1.87%.

`CO[C@@H]1CC[C@H]2[C@H]1OCCN2C(=O)C1CCOCC1`: the cytotoxicity at 70.5 h is -15%.

In the case of `CCN1CC2(CC1=O)CN(Cc1ccoc1)CCN(C(=O)C(C)C)C2` (stereo not drawn), the cytotoxicity at 70.5 h is -20.2%.

With `CCOCC1CN(Cc2ccc(F)cc2)Cc2nn(CC3CC3)cc21` (stereo not drawn), the cytotoxicity at 70.5 h is -17.2%.

For the compound `CC(=O)N1CC[C@@]2(C(=O)Nc3ccccc3)CCN(S(C)(=O)=O)CC[C@@H]12`, the cytotoxicity at 70.5 h was -1.82%.

In the case of `CC(C)NC(=O)N1CCN(C(=O)C(C)C)CC2(CC(=O)N(C)C2)C1` (stereo not drawn), the cytotoxicity at 70.5 h amounted to 7.84%.

In the case of `Cc1noc([C@H]2COC[C@H]3CN(C(=O)Cc4ccccc4F)C[C@H]32)n1`, the cytotoxicity at 70.5 h is -17%.

`CCOCC1COCCC12CCN(C(=O)CCOC)CC2` (stereo not drawn): the cytotoxicity at 70.5 h was -17.1%.

On to `COCC1COCCC12CCN(C(=O)Cc1cccc(OC)c1)CC2` (stereo not drawn), for which the cytotoxicity at 70.5 h was -11.4%.

For the compound `COCc1cnc2n1CCN(C(=O)C1=CCCC1)C2C` (stereo not drawn), the cytotoxicity at 70.5 h is -14.6%.

For `CCCS(=O)(=O)N1CC[C@H]2O[C@@H](c3nc(C)no3)CC[C@H]21`, the cytotoxicity at 70.5 h was -21.7%.

As for `CCS(=O)(=O)N1CCC2(COCc3cnc(N4CCOCC4)nc32)C1` (stereo not drawn), the cytotoxicity at 70.5 h is -6.84%.

Turning to `CC(C)NC(=O)N1CCC2(COCc3cnc(N4CCOCC4)nc32)C1` (stereo not drawn), the cytotoxicity at 70.5 h was 2.23%.

In the case of `O=C(c1cnccn1)N1CCN(CC2CC2)c2ncccc2C1`, the cytotoxicity at 70.5 h is 5.88%.

For the compound `O=C(N[C@@H]1CN(Cc2ccccn2)[C@@H]2COC[C@@H]21)C1CCC1`, the cytotoxicity at 70.5 h is -1.02%.

For the compound `O=C(c1c[nH]cn1)N1CCC(F)(F)C2(CCN(c3ncccn3)C2)C1` (stereo not drawn), the cytotoxicity at 70.5 h is -5.46%.

Take `Cc1nc(CN2C[C@@H](NC(=O)C3CCC3)[C@H]3COC[C@H]32)cs1`: the cytotoxicity at 70.5 h is -5.49%.

For `COCCN1CCCC12CCN(c1ncccn1)CC2`, the cytotoxicity at 70.5 h was -14.3%.

As for `CCN1C(=O)[C@H]2CN(CC(C)C)C[C@H]2C12CCN(S(C)(=O)=O)CC2`, the cytotoxicity at 70.5 h is -6.33%.

On to `CN1CCN(c2ncnc3c2CCN(c2ncc(F)cn2)CC3)CC1`, for which the cytotoxicity at 70.5 h was -1.02%.

`Cn1cncc1CN1CCC2(CCCN2c2ncccn2)CC1`: the cytotoxicity at 70.5 h was -8.23%.

In the case of `CCn1cc2c(n1)CN(S(=O)(=O)c1cccnc1)CC2COC` (stereo not drawn), the cytotoxicity at 70.5 h came out at 1.06%.

For `c1csc(CN2C[C@@H](n3cccn3)[C@H]3OCCC[C@H]32)c1`, the cytotoxicity at 70.5 h is -3.02%.

On to `O=C(NCC1CC[C@@H]2[C@@H]1OCCN2Cc1cccs1)c1ccco1` (stereo partly drawn), for which the cytotoxicity at 70.5 h was -0.679%.

On to `COCCN1CCC2(CC1)CN(CCn1cccn1)C(=O)CO2`, for which the cytotoxicity at 70.5 h amounted to 1.22%.

Take `CC(C)CC(=O)N1CC[C@H]2N(C)CC[C@@]2(C(=O)Nc2ccccc2)CC1`: the cytotoxicity at 70.5 h worked out at 36.5%.

In the case of `CCN1CC2(CC1=O)CN(Cc1ccco1)CCN(C(=O)C(C)C)C2` (stereo not drawn), the cytotoxicity at 70.5 h is 7.56%.

`O=C(NCc1cccs1)[C@@H]1CC[C@@H]2[C@@H](CCN2CC2CCC2)O1`: the cytotoxicity at 70.5 h was -17.4%.

With `Cn1cccc1C(=O)NC[C@]12COC[C@H]1CN(Cc1nccs1)C2`, the cytotoxicity at 70.5 h is -15.1%.

Consider `O=C(NC[C@]12COC[C@H]1CN(CC1CCOCC1)C2)c1ccccc1`, for which the cytotoxicity at 70.5 h was found to be 1.78%.

With `COc1ccccc1CN1CC[C@]2(C[C@@H](OC)CO2)C1`, the cytotoxicity at 70.5 h is -4.33%.

As to `O=C(NCc1cccs1)[C@H]1CC[C@@H]2[C@@H](CCN2C2CCC2)O1`, the cytotoxicity at 70.5 h was -3.48%.

`CCn1ncc2c1CN(C(=O)Cc1cccs1)CC2COC` (stereo not drawn): the cytotoxicity at 70.5 h is -7.83%.

For `O=C(NC[C@]12COC[C@H]1CN(Cc1nccs1)C2)c1cscn1`, the cytotoxicity at 70.5 h was -3.54%.

For `Cc1cccc(CN2C[C@@H](NC(=O)C3CC3)[C@H]3OCCC[C@H]32)n1`, the cytotoxicity at 70.5 h was found to be 4.63%.

Take `CC(=O)N1CCCC1c1nnn2cc(NCc3cccnc3)ccc12` (stereo not drawn): the cytotoxicity at 70.5 h was -18.3%.

Consider `CN(C[C@@H]1CCC[C@@H]2CN(Cc3cccnc3)C[C@@H]21)C1CC1`, for which the cytotoxicity at 70.5 h is -1.32%.

Take `CO[C@@H]1CCN(S(=O)(=O)N(C)C)[C@@H]2CN(Cc3ccncc3)C[C@@H]21`: the cytotoxicity at 70.5 h was -1.72%.

For the compound `CCN1CC2(CC1=O)CN(Cc1ccncc1)CCN(C(=O)C(C)C)C2` (stereo not drawn), the cytotoxicity at 70.5 h is 28.2%.

As to `Fc1cccnc1O[C@H]1CN(Cc2ccoc2)[C@@H]2CCCO[C@H]12`, the cytotoxicity at 70.5 h was -4.66%.

Take `O=C(C[C@@H]1COC[C@H]2CN(Cc3cccnc3)C[C@@H]12)N1CCOCC1`: the cytotoxicity at 70.5 h is 29.4%.

With `O=C(C[C@@H]1COC[C@H]2CN(Cc3ccccn3)C[C@@H]12)N1CCOCC1`, the cytotoxicity at 70.5 h was -2.94%.

Consider `Cc1nc(CN2CCN(CC3CCOC3)Cc3cccnc32)cs1` (stereo not drawn), for which the cytotoxicity at 70.5 h was -8.4%.

Regarding `CCN(CC)[C@@H]1CN(Cc2nccn2C)[C@@H]2CCCO[C@H]12`, the cytotoxicity at 70.5 h is -3.21%.
